According to patent US20220305401A1, “EUTECTIC EXTRACTION OF SOLIDS” (Givaudan SA, priority 2019, published 2022):

Tests used:
[1] = Saturation level of urea, betaine and urea:betaine mixtures in water; type: physicochemical
From the text: The concentrations of pure urea solution in water or PBS ranged from 0.025 to 10.1 M, the latter value corresponding to the saturation level of urea. Finally, the concentrations of pure betaine in water or PBS ranged from 0.025 to 5.4 M, this latter corresponding to the saturation level of betaine. In this Example, anhydrous urea:betaine (U:B) mixtures at different molar ratios were first prepared, then solubilized in distilled water at different concentrations ranging from 1.5 g/L to the saturation level which was 607, 813, 985, 957, 795, 741, and 633 g/L for the U:B ratios 1:0, 3:1, 2:1, 1:1, 1:2, 1:3, and 0:1, respectively.

[2] = Solubilization of disperse red 13 by urea:betaine aqueous solutions (absorbance at 525 nm); type: physicochemical; conditions: distilled water, room temperature
Procedure: The desired amounts of betaine and/or urea powders were dissolved in distilled water or phosphate buffer solution (PBS, 67 mM) at pH 7.0 to form a 100 mL solution.
The concentration of urea in the urea:betaine mixtures in water or PBS ranged from 0.025 to 8.3 M.
The solutions of urea and/or betaine in PBS were adjusted to provide a pH of 7.0 using concentrated HCl. The volume of added HCl was taken into account when calculating the final molar concentration of betaine and/or urea.
10 mL of the osmolyte solution was added to a vial containing 5 mg red disperse 13 in excess ([…], Sigma), then magnetically stirred (500 rpm) for 16 hours and filtrated (0.45 μm). The concentration of red disperse 13 in the filtrate is measured at 525 nm (Shimadzu UV-1800, Japan). […]
These liquid mixtures were mixed with an excess of disperse red 13 used as a hydrophobic probe to screen the solubilization properties of the solvents. It can be observed from FIG. 1 that the disperse red 13 absorbance increases exponentially 525 nm approx.) with increasing the deep eutectic concentration in water. […]

[3] = type: physicochemical
From the text: To further improve the washing procedure that leads to a high carnosic acid content in the final extract and, concomitantly, a strong antioxidant activity, here we studied the effect of the addition of sodium chloride on the CA hydrosolubility.

Compound	saturation level ([1]; distilled water) [g/L]	saturation level ([1]; water or PBS) [M]	hydrotropic behavior for disperse red 13 [2]	water solubility [3]
C[N+](C)(C)CC(=O)O [betaine]	633	5.4	too modestly to be qualified as such	–
CC(C)c1cc2c(c(O)c1O)[C@@]1(C(=O)O)CCCC(C)(C)[C@@H]1CC2 [CA, carnosic acid]	–	–	–	strongly reduced
NC(N)=O [urea, Urea]	607	10.1	displays a hydrotropic behavior	–
